Results reported in ChEMBL document CHEMBL6103599, “Design of Potent Menin-KMT2A Interaction Inhibitors with Improved In Vitro ADME Properties and Reduced hERG Affinity” (ACS Med Chem Lett, 2025).

Assays:
MV4-11 = experiment: Antiproliferative activity against human MV4-11 cells assessed as cell growth inhibition measured after 7 days by CellTiter-Glo assay; format: functional, cell-based; conditions: MV4-11, 168 h
[1] = biological target: Voltage-gated inwardly rectifying potassium channel KCNH2 (Homo sapiens, UniProt Q12809); experiment: Inhibition of hERG expressed in CHO cells; format: toxicity, cell-based
Voltage-gated inwardly rectifying potassium channel KCNH2, sequence (Q12809 whole entry): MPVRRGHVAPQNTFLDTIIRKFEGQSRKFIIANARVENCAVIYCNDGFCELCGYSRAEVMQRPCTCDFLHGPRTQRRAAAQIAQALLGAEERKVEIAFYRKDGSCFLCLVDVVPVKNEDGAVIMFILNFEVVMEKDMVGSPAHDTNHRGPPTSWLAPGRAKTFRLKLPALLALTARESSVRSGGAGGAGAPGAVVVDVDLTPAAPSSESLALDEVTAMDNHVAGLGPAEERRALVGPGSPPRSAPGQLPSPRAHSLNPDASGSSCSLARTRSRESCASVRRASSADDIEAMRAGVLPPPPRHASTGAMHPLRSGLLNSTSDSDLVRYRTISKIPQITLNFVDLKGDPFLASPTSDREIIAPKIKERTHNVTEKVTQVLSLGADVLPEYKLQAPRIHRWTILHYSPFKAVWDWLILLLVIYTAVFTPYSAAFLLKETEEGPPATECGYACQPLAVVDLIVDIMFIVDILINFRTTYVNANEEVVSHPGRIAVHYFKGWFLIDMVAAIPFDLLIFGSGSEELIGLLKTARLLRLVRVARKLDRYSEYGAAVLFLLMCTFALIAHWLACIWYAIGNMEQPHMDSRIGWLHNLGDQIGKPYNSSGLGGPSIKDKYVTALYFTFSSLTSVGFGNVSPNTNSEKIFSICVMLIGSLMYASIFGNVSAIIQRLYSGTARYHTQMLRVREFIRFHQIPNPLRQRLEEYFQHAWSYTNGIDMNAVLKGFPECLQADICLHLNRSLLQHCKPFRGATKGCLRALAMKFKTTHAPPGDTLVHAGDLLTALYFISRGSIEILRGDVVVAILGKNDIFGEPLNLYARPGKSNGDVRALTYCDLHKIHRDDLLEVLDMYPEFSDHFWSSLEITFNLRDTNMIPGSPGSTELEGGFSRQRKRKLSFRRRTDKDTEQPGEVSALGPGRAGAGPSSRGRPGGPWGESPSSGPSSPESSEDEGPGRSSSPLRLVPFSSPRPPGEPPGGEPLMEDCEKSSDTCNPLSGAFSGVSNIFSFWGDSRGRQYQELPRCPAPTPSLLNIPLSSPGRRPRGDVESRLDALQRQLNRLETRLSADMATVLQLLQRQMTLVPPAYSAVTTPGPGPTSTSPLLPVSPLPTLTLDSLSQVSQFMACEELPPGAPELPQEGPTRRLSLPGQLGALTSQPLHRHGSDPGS

HL-60 = experiment: Cytotoxicity against human HL-60 cells; format: functional, cell-based
[2] = Inhibition of His6-tagged MEN1 458-551 deletion A5T mutant (2 to 583 residues)/MLL (unknown origin) transfected in Escherichia coli BL21 (DE3) protein-protein interaction by TR-FRET assay; parameters: species or system Homo sapiens
[3] = Apparent permeability across apical to basolateral side in MDR1 knockout dog MDCKII cells incubated for 2 hrs by LC-MS/MS analysis; format: ADME, cell-based, Canis lupus familiaris, MDCK-II; conditions: MDCK
[4] = Metabolic stability in human hepatocytes assessed as clearance by LC-MS analysis; format: ADME, cell-based, Hepatocyte; conditions: read-out: CLH
[5] = Binding affinity to His6-tagged MEN1 458-551 deletion A5T mutant (unknown origin) assessed as dissociation constant by SPR analysis; parameters: species or system Homo sapiens
[6] = AUCinfinity in male CD-1 mouse at 1 mg/kg, iv measured after 8 hrs by LC-MS/MS analysis; format: ADME, organism-based; conditions: in vivo
[7] = Clearance in male CD-1 mouse at 1 mg/kg, iv measured after 8 hrs by LC-MS/MS analysis; format: ADME, organism-based; conditions: in vivo
[8] = Volume of distribution at steady state in male CD-1 mouse at 1 mg/kg, iv measured after 8 hrs by LC-MS/MS analysis; format: ADME, organism-based; conditions: in vivo, read-out: Vdss
[9] = Half life in male CD-1 mouse at 1 mg/kg, iv measured after 8 hrs by LC-MS/MS analysis; format: ADME, organism-based; conditions: in vivo
[10] = Hepatic extraction ratio in male CD-1 mouse at 1 mg/kg, iv measured after 8 hrs by LC-MS/MS analysis; format: ADME, organism-based; conditions: in vivo, read-out: ERH
[11] = Metabolic stability in human liver microsomes assessed as clearance incubated for 20 mins by LC-MS/MS analysis; format: ADME, Microsome; conditions: read-out: CLH

## CCN(C(=O)c1cc(F)ccc1Oc1cncnc1N1CC2(CCN(CC(C)(C)C)CC2)C1)C(C)C
MV4-11
  IC50: 72 nM
[1]
  IC50: 2900 nM
HL-60
  IC50: > 5000 nM
[2]
  IC50: 12 nM

## CCN(C(=O)c1cc(F)ccc1Oc1nncnc1N1CC2(CCN(CC3(SC)CC3)CC2)C1)C(C)C
MV4-11
  IC50: 12 nM
[3]
  Papp A→B at 2 h: 42 ×10⁻⁶ cm/s
[1]
  IC50: 75000 nM
[4]
  CLint scaled: 14 mL/min/kg
[2]
  IC50: 8 nM

## CCC1(CN2CCC3(CC2)CN(c2ncnnc2Oc2ccc(F)cc2CN2C(=O)COC[C@H]2C)C3)CC1
MV4-11
  IC50: 21 nM
[3]
  Papp A→B at 2 h: 29 ×10⁻⁶ cm/s
[4]
  CLint scaled: 6 mL/min/kg
[2]
  IC50: 5 nM

## CSC1(CN2CCC3(CC2)CN(c2ncnnc2Oc2ccc(F)cc2CN2C(=O)COC[C@H]2C)C3)CC1
MV4-11
  IC50: 13 nM
[3]
  Papp A→B at 2 h: 8 ×10⁻⁶ cm/s
[4]
  CLint scaled: 8 mL/min/kg
[2]
  IC50: 4 nM

## CCN(C(=O)c1cc(F)ccc1Oc1cncnc1N1CC2(CCN(C3CCCC3)CC2)C1)C(C)C
MV4-11
  IC50: 166 nM
HL-60
  IC50: > 5000 nM
[2]
  IC50: 18 nM

## CCN(C(=O)c1cc(F)ccc1Oc1cncnc1N1CC2(CCN(CC3(C)CC3)CC2)C1)C(C)C
MV4-11
  IC50: 22 nM
[3]
  Papp A→B at 2 h: 26 ×10⁻⁶ cm/s
[1]
  IC50: 10800 nM
HL-60
  IC50: > 5000 nM
[4]
  CLint scaled: 11 mL/min/kg
[2]
  IC50: 7 nM

## CC1(CN2CCC3(CC2)CN(c2ncnnc2Oc2ccc(F)cc2CN2CCOCC2=O)C3)CC1
MV4-11
  IC50: 190 nM
[3]
  Papp A→B at 2 h: 8 ×10⁻⁶ cm/s
[4]
  CLint scaled: 6 mL/min/kg
[2]
  IC50: 5 nM

## CCN(C(=O)c1cc(F)ccc1Oc1cncnc1N1CC2(CCN(C(=O)C34CC5CC(CC3C5)C4)CC2)C1)C(C)C
MV4-11
  IC50: 58 nM
[1]
  IC50: > 100000 nM
HL-60
  IC50: > 5000 nM
[2]
  IC50: 8 nM

## CCN(C(=O)c1cc(F)ccc1Oc1cncnc1N1CC2(CCN(CC34CC(C3)C4)CC2)C1)C(C)C
MV4-11
  IC50: 20 nM
HL-60
  IC50: > 5000 nM
[2]
  IC50: 13 nM

## C[C@@H]1COCC(=O)N1Cc1cc(F)ccc1Oc1nncnc1N1CC2(CCN(CC3(C)CC3)CC2)C1
MV4-11
  IC50: 19 nM
[5]
  Kd: 0.05 nM
[3]
  Papp A→B at 2 h: 7 ×10⁻⁶ cm/s
[4]
  CLint scaled: 4 mL/min/kg
[2]
  IC50: 4 nM

## CC1(CN2CCC3(CC2)CN(c2ncnnc2Oc2ccc(F)cc2C(=O)N2CCOCC2)C3)CC1
MV4-11
  IC50: 314 nM
[3]
  Papp A→B at 2 h: 4 ×10⁻⁶ cm/s
[1]
  IC50: 46000 nM
[4]
  CLint scaled: 6 mL/min/kg
[2]
  IC50: 62 nM

## CCN(C(=O)c1cc(F)ccc1Oc1cncnc1N1CC2(CCN(CC3CCCC3)CC2)C1)C(C)C
MV4-11
  IC50: 102 nM
HL-60
  IC50: > 5000 nM
[2]
  IC50: 4 nM

## CCN(C(=O)c1cc(F)ccc1Oc1cncnc1N1CC2(CCN(C(C)=O)CC2)C1)C(C)C
MV4-11
  IC50: > 5000 nM
HL-60
  IC50: > 5000 nM
[2]
  IC50: 160 nM

## CCN(C(=O)c1cc(F)ccc1Oc1nncnc1N1CC2(CCN(CC3(C)CC3)CC2)C1)C(C)C
MV4-11
  IC50: 19 nM
[6]
  AUC(0-inf): 92 ng·h/mL
[7]
  clearance: 129 mL/min/kg
[3]
  Papp A→B at 2 h: 35 ×10⁻⁶ cm/s
[1]
  IC50: 28000 nM
[8]
  Vd: 14.1 L/kg
[9]
  half-life: 133 min
[4]
  CLint scaled: 6 mL/min/kg
[2]
  IC50: 10 nM

## CSC1(CN2CCC3(CC2)CN(c2ncnnc2Oc2ccc(F)cc2CN2CCCC2=O)C3)CC1
MV4-11
  IC50: 345 nM
[3]
  Papp A→B at 2 h: 6 ×10⁻⁶ cm/s
[4]
  CLint scaled: 11 mL/min/kg
[2]
  IC50: 5 nM

## CC(C)C1(CN2CCC3(CC2)CN(c2ncnnc2Oc2ccc(F)cc2CN2C(=O)COC[C@H]2C)C3)CC1
MV4-11
  IC50: 19 nM
[6]
  AUC(0-inf): 128 ng·h/mL
[7]
  clearance: 130 mL/min/kg
[3]
  Papp A→B at 2 h: 35 ×10⁻⁶ cm/s
[8]
  Vd: 5.44 L/kg
[9]
  half-life: 45.6 min
[4]
  CLint scaled: 10 mL/min/kg
[2]
  IC50: 4 nM

## CCN(C(=O)c1cc(F)ccc1Oc1nnccc1N1CC2(CCN(CC3(C)CC3)CC2)C1)C(C)C
MV4-11
  IC50: 58 nM
[3]
  Papp A→B at 2 h: 7 ×10⁻⁶ cm/s
[1]
  IC50: 28000 nM
[4]
  CLint scaled: 8 mL/min/kg
[2]
  IC50: 11 nM

## CCN(C(=O)c1cc(F)ccc1Oc1cncnc1N1CC2(CCN(CC(C)C)CC2)C1)C(C)C
MV4-11
  IC50: 416 nM
HL-60
  IC50: > 5000 nM
[2]
  IC50: 66 nM

## CCN(C(=O)c1cc(F)ccc1Oc1cncnc1N1CC2(CCN(CC3CCCCC3)CC2)C1)C(C)C
MV4-11
  IC50: 23 nM
[1]
  IC50: 3500 nM
HL-60
  IC50: > 5000 nM
[2]
  IC50: 8 nM

## C[C@@H]1CCCCN1C(=O)c1cc(F)ccc1Oc1nncnc1N1CC2(CCN(CC3(C)CC3)CC2)C1
MV4-11
  IC50: 145 nM
[3]
  Papp A→B at 2 h: 21 ×10⁻⁶ cm/s
[4]
  CLint scaled: 9 mL/min/kg
[2]
  IC50: 20 nM

## CCN(C(=O)c1cc(F)ccc1Oc1cncnc1N1CC2(CCN(C[C@@H](O)C(F)(F)F)CC2)C1)C(C)C
MV4-11
  IC50: 502 nM
HL-60
  IC50: > 5000 nM
[2]
  IC50: 33 nM

## CCN(C(=O)c1cc(F)ccc1Oc1cncnc1N1CC2(CCN(Cc3ccc(C#N)cc3)CC2)C1)C(C)C
MV4-11
  IC50: 53 nM
[1]
  IC50: < 1000 nM
HL-60
  IC50: > 5000 nM
[2]
  IC50: 12 nM

## C[C@@H]1COC[C@H](C)N1C(=O)c1cc(F)ccc1Oc1nncnc1N1CC2(CCN(CC3(C)CC3)CC2)C1
MV4-11
  IC50: 65 nM
[3]
  Papp A→B at 2 h: 13 ×10⁻⁶ cm/s
[4]
  CLint scaled: 5 mL/min/kg
[2]
  IC50: 9 nM

## C[C@@H]1CCCN1C(=O)c1cc(F)ccc1Oc1nncnc1N1CC2(CCN(CC3(C)CC3)CC2)C1
MV4-11
  IC50: 231 nM
[3]
  Papp A→B at 2 h: 23 ×10⁻⁶ cm/s
[4]
  CLint scaled: 27 mL/min/kg
[2]
  IC50: 6 nM

## C[C@@H]1COC[C@@H](C)N1C(=O)c1cc(F)ccc1Oc1nncnc1N1CC2(CCN(CC3(C)CC3)CC2)C1
MV4-11
  IC50: 48 nM
[3]
  Papp A→B at 2 h: 8 ×10⁻⁶ cm/s
[4]
  CLint scaled: 7 mL/min/kg
[2]
  IC50: 23 nM

## CON(C(=O)c1cc(F)ccc1Oc1nncnc1N1CC2(CCN(CC3(C)CC3)CC2)C1)C(C)C
MV4-11
  IC50: 10 nM
[10]
  hepatic extraction ratio at 8 h: 0.874
[6]
  AUC(0-inf): 212 ng·h/mL
[7]
  clearance: 78.7 mL/min/kg
[3]
  Papp A→B at 2 h: 30 ×10⁻⁶ cm/s
[8]
  Vd: 1.7 L/kg
[9]
  half-life: 28.8 min
[4]
  CLint scaled: 7 mL/min/kg
[2]
  IC50: 4 nM

## C[C@@H]1CCC(=O)N1Cc1cc(F)ccc1Oc1nncnc1N1CC2(CCN(CC3(C)CC3)CC2)C1
MV4-11
  IC50: 40 nM
[10]
  hepatic extraction ratio at 8 h: 0.574
[6]
  AUC(0-inf): 323 ng·h/mL
[7]
  clearance: 51.6 mL/min/kg
[3]
  Papp A→B at 2 h: 9 ×10⁻⁶ cm/s
[8]
  Vd: 5.48 L/kg
[9]
  half-life: 106 min
[4]
  CLint scaled: 3 mL/min/kg
[2]
  IC50: 4 nM

## CC1(CN2CCC3(CC2)CN(c2ncnnc2Oc2ccc(F)cc2CN2C(=O)CC4CC42)C3)CC1 (racemic)
MV4-11
  IC50: 112 nM
[6]
  AUC(0-inf): 160 ng·h/mL
[7]
  clearance: 104 mL/min/kg
[3]
  Papp A→B at 2 h: 9 ×10⁻⁶ cm/s
[8]
  Vd: 4.14 L/kg
[9]
  half-life: 38.4 min
[4]
  CLint scaled: 4 mL/min/kg
[11]
  CLint scaled: 4 mL/min/kg
[2]
  IC50: 6 nM

## CCN(C(=O)c1cc(F)ccc1Oc1cncnc1N1CC2(CCN(C[C@H]3CC[C@H](NS(=O)(=O)CC)CC3)CC2)C1)C(C)C [REVUMENIB]
MV4-11
  IC50: 10 nM
[1]
  IC50: 5000 nM
HL-60
  IC50: > 5000 nM
[2]
  IC50: 0.149 nM
